{"source": "ChEMBL document CHEMBL1201862", "about": "“PubChem BioAssay data set” (2004)", "assay_type_in_all_cases": "functional", "key": {"[1]": {"assay": "viability loss in Mcl1-dependent HMC-1-8 cells, dose response, selectivity assay for A1 inhibitor project, cell-based, luminescence, dry powder (AID 504415)", "details": "Homo sapiens"}, "[2]": {"molecular_target": "Ribosomal protein S6 kinase beta-1 (Homo sapiens, UniProt P23443)", "sequence (P23443 whole entry)": "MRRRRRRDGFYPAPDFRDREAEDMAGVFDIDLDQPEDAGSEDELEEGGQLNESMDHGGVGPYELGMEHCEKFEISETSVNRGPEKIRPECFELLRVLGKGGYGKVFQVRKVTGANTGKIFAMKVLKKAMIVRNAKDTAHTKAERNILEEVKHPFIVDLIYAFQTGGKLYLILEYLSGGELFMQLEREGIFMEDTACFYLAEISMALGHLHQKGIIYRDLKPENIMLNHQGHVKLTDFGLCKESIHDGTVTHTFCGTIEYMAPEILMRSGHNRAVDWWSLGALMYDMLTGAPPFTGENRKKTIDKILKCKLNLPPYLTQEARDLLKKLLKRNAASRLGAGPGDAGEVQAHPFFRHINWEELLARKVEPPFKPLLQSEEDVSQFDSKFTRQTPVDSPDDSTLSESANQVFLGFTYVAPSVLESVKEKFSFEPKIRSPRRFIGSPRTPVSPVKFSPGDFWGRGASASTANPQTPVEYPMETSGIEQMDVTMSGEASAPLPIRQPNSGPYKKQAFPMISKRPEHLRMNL"}, "[3]": {"molecular_target": "Serine/threonine-protein kinase pim-3 (Homo sapiens, UniProt Q86V86)"}, "Aurora kinase B": {"molecular_target": "Aurora kinase B (Homo sapiens, UniProt Q96GD4)", "sequence (Q96GD4 whole entry)": "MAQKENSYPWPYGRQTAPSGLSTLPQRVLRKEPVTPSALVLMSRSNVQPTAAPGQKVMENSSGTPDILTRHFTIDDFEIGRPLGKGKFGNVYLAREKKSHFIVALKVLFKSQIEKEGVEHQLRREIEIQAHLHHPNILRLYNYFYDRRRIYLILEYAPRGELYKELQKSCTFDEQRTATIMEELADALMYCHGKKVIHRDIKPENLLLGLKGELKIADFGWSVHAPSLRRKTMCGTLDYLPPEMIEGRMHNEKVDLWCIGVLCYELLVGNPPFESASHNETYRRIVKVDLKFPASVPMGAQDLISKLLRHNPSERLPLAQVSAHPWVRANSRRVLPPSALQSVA"}, "[4]": {"molecular_target": "Megakaryocyte-associated tyrosine-protein kinase (Homo sapiens, UniProt P42679)", "sequence (P42679 whole entry)": "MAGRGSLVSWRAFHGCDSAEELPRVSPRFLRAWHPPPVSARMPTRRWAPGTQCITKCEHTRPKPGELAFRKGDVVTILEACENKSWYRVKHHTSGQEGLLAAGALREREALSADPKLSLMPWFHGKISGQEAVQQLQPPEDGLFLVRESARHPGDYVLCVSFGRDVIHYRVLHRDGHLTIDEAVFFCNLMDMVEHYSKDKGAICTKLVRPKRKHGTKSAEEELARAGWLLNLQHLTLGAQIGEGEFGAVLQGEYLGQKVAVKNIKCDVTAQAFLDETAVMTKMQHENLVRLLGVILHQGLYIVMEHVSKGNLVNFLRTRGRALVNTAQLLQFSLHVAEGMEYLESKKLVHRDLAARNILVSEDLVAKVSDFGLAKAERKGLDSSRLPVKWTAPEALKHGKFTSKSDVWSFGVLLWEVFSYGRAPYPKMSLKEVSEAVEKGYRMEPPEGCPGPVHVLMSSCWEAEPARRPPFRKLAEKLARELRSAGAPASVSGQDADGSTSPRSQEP"}, "[5]": {"molecular_target": "MAP kinase-activated protein kinase 3 (Homo sapiens, UniProt Q16644)", "sequence (Q16644 whole entry)": "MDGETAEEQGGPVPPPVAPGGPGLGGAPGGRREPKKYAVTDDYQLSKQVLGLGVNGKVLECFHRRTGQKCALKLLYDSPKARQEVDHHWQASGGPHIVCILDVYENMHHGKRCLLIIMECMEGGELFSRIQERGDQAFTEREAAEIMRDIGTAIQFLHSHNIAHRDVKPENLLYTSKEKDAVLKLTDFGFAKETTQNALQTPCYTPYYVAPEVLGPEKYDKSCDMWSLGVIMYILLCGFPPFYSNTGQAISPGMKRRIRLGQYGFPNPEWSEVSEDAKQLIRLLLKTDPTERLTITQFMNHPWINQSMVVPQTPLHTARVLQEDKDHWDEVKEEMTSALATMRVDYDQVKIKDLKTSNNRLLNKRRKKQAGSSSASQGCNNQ"}, "[6]": {"molecular_target": "Dual specificity tyrosine-phosphorylation-regulated kinase 1A (Homo sapiens, UniProt Q13627)"}, "[7]": {"assay": "(§1) Counterscreen for antagonists of the orexin 1 receptor (OX1R; HCRTR1): Fluorescence-based cell-based high throughput dose response assay to identify antagonists of the parental CHO cell line. [Related pubchem assays (depositor defined):AID434989, AID435008, AID463079, AID485270, AID492963, AID492964, AID492965, AID493232, AID504699, AID504701]"}, "Orexin receptor type 2 [8]": {"molecular_target": "T1, Orexin receptor type 2 (Homo sapiens, UniProt O43614)", "T1 sequence (O43614 whole entry)": "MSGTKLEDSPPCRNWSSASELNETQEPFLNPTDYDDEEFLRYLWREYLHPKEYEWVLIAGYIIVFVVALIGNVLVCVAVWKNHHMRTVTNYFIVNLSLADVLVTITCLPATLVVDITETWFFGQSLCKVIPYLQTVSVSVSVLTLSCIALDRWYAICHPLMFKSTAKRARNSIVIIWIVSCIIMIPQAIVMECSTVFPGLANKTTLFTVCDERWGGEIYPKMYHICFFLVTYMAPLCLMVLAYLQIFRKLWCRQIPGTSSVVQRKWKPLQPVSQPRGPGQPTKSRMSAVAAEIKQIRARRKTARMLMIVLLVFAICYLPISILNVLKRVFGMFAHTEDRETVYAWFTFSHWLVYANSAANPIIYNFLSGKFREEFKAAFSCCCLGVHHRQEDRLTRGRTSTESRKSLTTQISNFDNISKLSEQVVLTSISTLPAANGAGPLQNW", "assay": "Counterscreen assay for antagonists of the orexin 1 receptor (OX1R; HCRTR1): Homogeneous Time Resolved Fluorescence (HTRF)-based cell-based dose response assay for antagonists of the orexin 2 receptor (OX2R; HCRTR2), run by assay provider."}, "Orexin receptor type 2 [9]": {"molecular_target": "T1, Orexin receptor type 2", "assay": "Counterscreen assay for antagonists of the orexin 1 receptor (OX1R; HCRTR1): Fluorescence-based cell-based dose response assay for antagonists of the orexin 2 receptor (OX2R; HCRTR2), run by assay provider."}, "[10]": {"molecular_target": "T2, Orexin/Hypocretin receptor type 1 (Homo sapiens, UniProt O43613)", "T2 sequence (O43613 whole entry)": "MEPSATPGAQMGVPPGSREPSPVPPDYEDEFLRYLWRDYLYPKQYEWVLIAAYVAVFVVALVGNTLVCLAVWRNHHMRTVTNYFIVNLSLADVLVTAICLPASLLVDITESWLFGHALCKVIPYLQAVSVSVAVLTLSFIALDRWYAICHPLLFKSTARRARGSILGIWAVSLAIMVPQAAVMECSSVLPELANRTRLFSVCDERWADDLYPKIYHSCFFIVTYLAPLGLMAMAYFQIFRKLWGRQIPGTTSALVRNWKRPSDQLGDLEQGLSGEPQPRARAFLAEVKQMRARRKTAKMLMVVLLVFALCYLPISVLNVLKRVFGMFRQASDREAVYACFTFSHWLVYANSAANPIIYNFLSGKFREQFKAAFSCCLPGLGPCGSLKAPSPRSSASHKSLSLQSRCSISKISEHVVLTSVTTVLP", "assay": "Homogeneous Time Resolved Fluorescence (HTRF)-based cell-based high throughput dose response assay for antagonists of the orexin 1 receptor (OX1R; HCRTR1). [Related pubchem assays (depositor defined):AID434989, AID435008, AID463079, AID485270, AID492963, AID492964, AID492965, AID493232, AID504717, AID504718]"}, "[11]": {"molecular_target": "T2, Orexin/Hypocretin receptor type 1", "assay": "Fluorescence-based cell-based high throughput dose response assay for antagonists of the orexin 1 receptor (OX1R; HCRTR1). [Related pubchem assays (depositor defined):AID434989, AID435008, AID463079, AID485270, AID492963, AID492964, AID492965, AID493232, AID504717, AID504718]"}, "CHO-K1": {"tested_on": "CHO-K1", "assay": "as §1, with “Homogeneous time resolved fluorescence (HTRF)-based” for “Fluorescence-based”, “cell-based” for “cell-based high throughput”, “CHO-K1” for “CHO”", "details": "Cricetulus griseus"}, "[12]": {"molecular_target": "Peroxisome proliferator-activated receptor gamma/Nuclear receptor corepressor 2 (Homo sapiens, UniProt P37231+Q9Y618)", "assay": "Counterscreen for NR2E3 inverse agonists: TR-FRET-based biochemical high throughput dose response assay to identify inverse agonists of the interaction between peroxisome proliferator-activated receptor gamma (PPARg) and nuclear receptor co-repressor 2 (NCOR2)."}, "[13]": {"molecular_target": "Photoreceptor-specific nuclear receptor (Homo sapiens, UniProt Q9Y5X4)", "sequence (Q9Y5X4 whole entry)": "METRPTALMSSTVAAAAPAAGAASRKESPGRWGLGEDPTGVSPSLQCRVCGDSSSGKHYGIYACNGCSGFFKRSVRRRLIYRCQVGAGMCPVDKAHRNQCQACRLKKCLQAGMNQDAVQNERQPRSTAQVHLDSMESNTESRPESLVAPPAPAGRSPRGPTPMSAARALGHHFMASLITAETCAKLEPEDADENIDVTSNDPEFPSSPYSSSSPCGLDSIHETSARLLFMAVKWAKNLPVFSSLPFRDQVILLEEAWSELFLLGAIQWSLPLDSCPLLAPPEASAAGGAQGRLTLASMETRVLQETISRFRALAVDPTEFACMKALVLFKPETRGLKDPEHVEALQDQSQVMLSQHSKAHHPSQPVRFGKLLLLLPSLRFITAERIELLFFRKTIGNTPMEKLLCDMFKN", "assay": "NR2E3 inverse agonists, dose response, biochemical, TR-FRET (AID 463256)"}}, "note": "The source made the active and inactive calls."}
{"smiles": "CCSc1c([N+](=O)[O-])c(=O)oc2ccccc12", "values": [{"measurement": "AC50", "setting": "[1]", "value": "23.4 µM (active)"}]}
{"smiles": "Cc1c(F)c(N2CCC(N)C2)nc2[nH]cc(C(=O)O)c(=O)c12", "note": "(stereo not given)", "values": [{"measurement": "Ki", "setting": "[2]", "value": "2 µM (active)"}, {"measurement": "Ki", "setting": "[3]", "value": "5.01 µM (active)"}, {"measurement": "Ki", "setting": "Aurora kinase B", "value": "6.31 µM (active)"}, {"measurement": "Ki", "setting": "[4]", "value": "2 µM (active)"}, {"measurement": "Ki", "setting": "[5]", "value": "7.94 µM (active)"}, {"measurement": "Ki", "setting": "[6]", "value": "3.16 µM (active)"}]}
{"smiles": "Cc1nc2ccc(NC(=O)c3oc4ccc(F)cc4c3C)cc2s1", "values": [{"measurement": "IC50", "setting": "[7]", "value": "> 49.7 µM (inactive)"}, {"measurement": "IC50", "setting": "Orexin receptor type 2 [8]", "value": "> 50 µM (inactive)"}, {"measurement": "IC50", "setting": "Orexin receptor type 2 [9]", "value": "> 88.8 µM (inactive)"}, {"measurement": "IC50", "setting": "[10]", "value": "0.386 µM (active)"}, {"measurement": "IC50", "setting": "[11]", "value": "1.76 µM (active)"}, {"measurement": "IC50", "setting": "CHO-K1", "value": "> 66.2 µM (inactive)"}, {"measurement": "IC50", "setting": "[12]", "value": "8.73 µM (active)"}, {"measurement": "IC50", "setting": "[13]", "value": "> 39.8 µM (not active)"}]}
